Experimental data reported in patent publication US10111841B2, “Stabilization of alcohol intoxication-induced cardiovascular instability” (UNIVERSITY OF SOUTH FLORIDA, priority 2015, dated 2018).
One block for each compound: values may come before it.

Assays:
[1] = tested on: HUVEC; assay: TER of HUVEC monolayers on gold-plated electrodes (endothelial barrier function); format: cell-based; conditions: for course of barrier function (TER) over time / restoration of barrier function (TER) after alcohol: 50 mM alcohol, 10 min later 1 μM compound
Protocol: (§1) FIGS. 3A-3D. Alcohol-induced endothelial barrier dysfunction in cultured endothelial cell monolayers. FIG. 3A: Time-course of changes in transepithelial electrical resistance (TER) of HUVEC monolayers following application of vehicle (water) or 20, 50, or 100 mM alcohol. FIG. 3B: Time course of alcohol-induced changes in TER in HMVEC-C monolayers. FIG. 3C: The mean maximum alcohol-induced changes in TER in HUVEC. FIG. 3D: Mean maximum alcohol-induced changes in TER in HMVEC-c. *P<0.05 and **P<0.01 vs. vehicle. One-way ANOVA followed by Dunnett's test, all groups, N=4.
FIGS. 6A and 6B. Alcohol-induced barrier dysfunction in HUVEC was resolved faster by S1P treatment. HUVEC were cultured to confluence on gold-plated electrodes and then serum starved for 1-2 hours. Following 30 minutes of baseline TER measurements, alcohol was added to the wells to a final concentration of 50 mM for 5 minutes before treatment with 1 μM of […] or vehicle. FIG. 6A: Time course of changes in HUVEC monolayer TER in response to 50 mM alcohol, followed by addition of 1 μM S1P 5 min later, or vehicle (PBS) 5 min later. FIG. 6B: Mean recovery time for HUVEC, i.e., time to return to baseline TER, starting from the time point immediately preceding alcohol was added. **P<0.01 versus alcohol/vehicle group. Statistical analysis by t-test; all HUVEC groups, N=8.
(§2) FIGS. 10A-10C. Selective S1P1R agonist FTY720-phosphonate ameliorates alcohol-induced microvascular hyperpermeability. FTY720 and its analogs reverse alcohol-induced disruption of EC monolayer barrier function. In all panels, 50 mM alcohol or vehicle was applied first, and 10 min later, 1 μM of FTY720 (FIG. 10A) FTY720-P (FIG. 10B) or FTY720 (S)-phosphonate (FIG. 10C) or vehicle was added. […] A minimum of N=4 monolayers in each group.
(§3) The direct impact of alcohol on endothelial barrier function was tested using cultured HUVEC or HMVEC-c confluent monolayers grown on gold-plated electrodes. Thirty minutes of baseline transepithelial electrical resistance (TER) measurements were recorded before the cells were treated with alcohol at final bath concentrations of 20, 50 or 100 mM. Alcohol was added directly into the MEDIA within the wells. […] The decrease in TER was alcohol concentration-dependent with high alcohol concentrations eliciting a larger drop in TER. The maximal decline in TER from baseline was significant for the 50 and 100 mM concentrations in both HUVEC (FIG. 3C) and HMVEC-c (FIG. 3D).
The inventors next set out to determine if S1P could similarly reduce the recovery time for TER to be reestablished to baseline in HUVEC pretreated with alcohol. Following 30 minutes of baseline TER measurements, alcohol was added to the wells to a final concentration of 50 mM for 5 minutes before treatment with 1 μM S1P or vehicle.
(§4) FIGS. 10A-C show TER data. TER is an index of the barrier function of endothelial cells. […] Unlike S1P, which restored the barrier in about 5 min (see FIG. 6A), FTY720 restored barrier function occurred gradually (FIG. 10A).

[2] = tested on: endothelial barrier; conditions: in vitro; cited from earlier work
[3] = molecular target: S1P1R (Homo sapiens, UniProt P21453); conditions: cited from earlier work
Sequence of S1P1R (P21453 whole entry): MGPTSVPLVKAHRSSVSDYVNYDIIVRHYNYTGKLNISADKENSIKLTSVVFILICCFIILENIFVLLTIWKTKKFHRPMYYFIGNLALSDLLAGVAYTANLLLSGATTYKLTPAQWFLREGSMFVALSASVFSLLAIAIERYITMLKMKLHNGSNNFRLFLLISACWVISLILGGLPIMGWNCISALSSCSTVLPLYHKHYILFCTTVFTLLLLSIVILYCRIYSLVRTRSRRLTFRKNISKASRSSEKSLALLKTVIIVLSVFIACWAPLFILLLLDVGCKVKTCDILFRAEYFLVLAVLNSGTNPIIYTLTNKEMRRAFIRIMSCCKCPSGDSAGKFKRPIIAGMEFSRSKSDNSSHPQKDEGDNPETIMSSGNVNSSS

[4] = 0.5 mg/kg; anesthetized rats; several hours after administration; cited from earlier work
[5] = tested on: microvascular hyperpermeability; conditions: in vivo; cited from earlier work
[6] = combined hemorrhage and trauma (laparotomy), anesthetized rats; cited from earlier work
[7] = multiple sclerosis patients; cited from earlier work
[8] = swine, uncontrolled hemorrhage; cited from earlier work
[9] = tested on: HMVEC-c; assay: TER of HMVEC-c / cardiac microvascular EC monolayers; format: cell-based
Protocol: as §1, §2, §3, §4

[10] = MAP during IVM following HSR; format: in vivo, Sprague-Dawley rats; conditions: alcohol-intoxicated rats; 0.1 mg/kg S1P during resuscitation; 30 minutes IVM; only 3 experiments
Protocol: The time-course of changes in MAP of Sprague-Dawley rats treated with alcohol, water, or alcohol and 0.1 mg/kg S1P within the resuscitation fluid during the IVM stage.
As before, immediately following completion of the HSR protocol the animal was anesthetized and prepped for IVM. During IVM, MAP is continually monitored. […] At the time of writing this, only 3 IVM experiments were performed with alcohol-intoxicated animals that received S1P during resuscitation.

[11] = MAP during fixed-pressure hemorrhage and resuscitation (HSR) protocol; format: in vivo, Sprague-Dawley rats
[12] = tested on: mesenteric microcirculation; assay: IVM of FITC-albumin extravasation in the rat mesenteric microcirculation; format: in vivo, Sprague-Dawley rats
Protocol: FIGS. 2A-2D. […] FIG. 2C: Mean maximum change in IOI in the extravascular space from the initial baseline just after FITC-albumin was injected i.v. to the end of the IVM experiment. FIG. 2D: Mean mesenteric arteriolar diameter in the observed microvascular beds. *P<0.05, alcohol vs. water. Mann-Whitney U-test, N=5 rats studied for the water group, and N=8 rats studied for the alcohol group.
FIGS. 7A-7C. […] White circles highlight areas of FITC-Albumin fluorescence in the surrounding interstitium. White arrows indicate areas of FITC-Albumin accumulation resulting in hotspots of fluorescence within and just outside the vessel walls. […] FIG. 7C: Mean maximum change in IOI in the extravascular space, from the initial baseline just after FITC-albumin was injected i.v. **P<0.01, Alcohol-Sham. Statistical analysis by t-test; both treatment groups, N=8.
S1P has been used to reduce the permeability of rat microvessels to BSA, however, only one study has been performed in intact animals. Using the inventors' established method of observing hyperpermeability in the rat mesentery, the ability of S1P to abolish or attenuate the enhanced extravasation of FITC-albumin caused by acute alcohol intoxication was examined. After receiving a 2.5 g/kg bolus of alcohol and allowed free roaming for 30 minutes, rats were prepared for IVM and administered S1P to a final concentration of 2 μM within the FITC-albumin infusion. This provided an estimated final plasma concentration of S1P in the rats of 0.2 μM.

[13] = tested on: mesenteric microcirculation
Excerpt: FIG. 5A: Representative fluorescent image of the mesenteric microcirculation of a rat that received water and undergoing sham-HSR illustrating that FITC-albumin was present mainly inside the lumen of microvessels. […] FIG. 5C: Representative image of the mesenteric microcirculation of a water-treated rat that underwent HSR. FIG. 5D: Representative image of the mesenteric microcirculation of an alcohol-treated rat that underwent HSR.
Immediately following completion of the HSR protocol the animal was anesthetized and prepped for IVM. […] This extravasation was quantified by calculating the mean 60-minute RM.

[14] = Blood alcohol concentration after intragastric alcohol; conditions: 30 minutes after 2.5 g/kg alcohol vs time-matched water-treated groups
Protocol: Blood alcohol concentrations (BAC) 30 minutes after administration of 2.5-g/kg alcohol or isovolumic water. Intragastric catheters were implanted 2-3 days before the day of experiments. Male Sprague-Dawley rats were administered 2.5 g/kg alcohol or isovolumic water and allowed to freely roam in their cages for 30 minutes. Following 30 minutes incubation, experimental protocols were begun and blood samples obtained.
Administration of a 2.5-g/kg dose of alcohol was performed via an intragastric catheter that was implanted 2-3 days before the day of experiment. The animals were allowed to roam freely for 30 minutes after administration.

[15] = cardiac microvascular EC, 50 mM alcohol, 10 min later 1 μM compound
[16] = alcohol-intoxicated rats (2.5 g/kg), S1P in the FITC-albumin infusion, estimated plasma 0.2 μM
[17] = 2.5 g/kg alcohol vs water-treated animals

Compound: CCCCCCCCc1ccc(CC[C@@](N)(CO)CCP(=O)(O)O)cc1 [FTY720 (S)-phosphonate, (S)-3-amino-3-(hydroxymethyl)-5-(4-octylphenyl)pentylphosphonic acid]
course of barrier function (TER) over time [1]: sustained enhancement of barrier integrity over time
restoration of barrier function (TER) after alcohol [1]: rapid rescue of barrier function, rising above baseline levels
endothelial barrier function [2]: longer-lasting endothelial barrier enhancement
S1P1R turnover [3]: limits this S1P1R turnover

Compound: CCCCCCCCc1ccc(CCC(N)(CO)CO)cc1 [FTY720, 2-amino-2-(4-octylphenethyl)propane-1,3-diol]
baseline blood pressure [4]: reduced baseline blood pressure
VEGF- and histamine-induced microvascular hyperpermeability [5]: reduces
hypotension and lung injury [6]: reduced
course of barrier function (TER) over time [1]: gradually
restoration of barrier function (TER) after alcohol [1]: accelerated its restoration to the baseline level
endothelial barrier function [2]: enhances endothelial barrier function
rate of clinical relapses [7]: reduce the rate of clinical relapses
S1P1R turnover [3]: can cause proteasome-mediated turnover of S1P1R
survival [8]: improved survival

Compound: CCCCCCCCc1ccc(CC[C@](N)(CO)COP(=O)(O)O)cc1 [FTY720-P]
course of barrier function (TER) over time [9, 15]: overshoot over the original baseline, followed by a gradual drop over time
restoration of barrier function (TER) after alcohol [9, 15]: much more rapid elevation in barrier function

Compound: CCCCCCCCCCCCC/C=C/[C@@H](O)[C@@H](N)COP(=O)(O)O [S1P, sphingosine-1-phosphate]
MAP higher than alcohol-intoxicated animals that received standard fluids [10]: 20-25 mm Hg
recovery of MAP during resuscitation ([11]; alcohol-intoxicated rats, 0.1 mg/kg S1P within lactated Ringer's resuscitation fluid): same impaired recovery of MAP
TER time course after alcohol ([1]; 50 mM alcohol for 5 minutes, then 1 μM S1P): rapidly rise to the previously established baseline levels
reestablishing baseline TER faster than cells treated with vehicle (recovery time) ([1]; 50 mM alcohol for 5 minutes, then 1 μM S1P or vehicle): about 30 minutes
time to restore the barrier ([1]; after alcohol, FIG. 6A): about 5 min
extravasation of FITC-albumin [12, 16]: marked reduction
mean IOI in the extravascular space vs FITC-albumin infusion alone [12, 16]: significantly lower

recovery of MAP during the resuscitation phase ([11]; 2.5 g/kg alcohol vs water): significantly blunted
baseline MAP [11, 17]: significantly lower
total blood volume shed to achieve the 40-60 mm Hg target MAP (TBR) [11, 17]: significantly less
maximal decline in TER from baseline ([1]; 50 and 100 mM alcohol vs vehicle): significant
TER of the monolayer ([1]; alcohol 20, 50 or 100 mM): immediate decline in the TER
mean maximal change in IOI in the extravascular space adjacent to postcapillary venules ([12]; 2.5 g/kg alcohol intragastric vs water control rats): significantly higher
mean arteriolar diameter of third-order arterioles ([12]; 2.5 g/kg alcohol vs control groups): no significant difference
maximal decline in TER from baseline ([9]; HMVEC-c, 50 and 100 mM alcohol vs vehicle): significant
TER of the monolayer ([9]; HMVEC-c, alcohol 20, 50 or 100 mM): immediate decline in the TER
mean 60-minute IOI (printed RN) in the extravascular space ([13]; alcohol-HSR rats vs water-HSR rats): significantly higher
mean 60-minute IOI in the extravascular space ([13]; alcohol-sham rats vs water-sham rats): significantly higher
BAC [14]: significantly higher
Compound: CCO [alcohol]
